What is called IC50 is the midpoint of a concentration-inhibition curve. Low readings indicate inhibition by little substance, high ones a need for much substance.

Structures are written as SMILES.

T1 sequence (O60678 with tags, fused parts or gaps): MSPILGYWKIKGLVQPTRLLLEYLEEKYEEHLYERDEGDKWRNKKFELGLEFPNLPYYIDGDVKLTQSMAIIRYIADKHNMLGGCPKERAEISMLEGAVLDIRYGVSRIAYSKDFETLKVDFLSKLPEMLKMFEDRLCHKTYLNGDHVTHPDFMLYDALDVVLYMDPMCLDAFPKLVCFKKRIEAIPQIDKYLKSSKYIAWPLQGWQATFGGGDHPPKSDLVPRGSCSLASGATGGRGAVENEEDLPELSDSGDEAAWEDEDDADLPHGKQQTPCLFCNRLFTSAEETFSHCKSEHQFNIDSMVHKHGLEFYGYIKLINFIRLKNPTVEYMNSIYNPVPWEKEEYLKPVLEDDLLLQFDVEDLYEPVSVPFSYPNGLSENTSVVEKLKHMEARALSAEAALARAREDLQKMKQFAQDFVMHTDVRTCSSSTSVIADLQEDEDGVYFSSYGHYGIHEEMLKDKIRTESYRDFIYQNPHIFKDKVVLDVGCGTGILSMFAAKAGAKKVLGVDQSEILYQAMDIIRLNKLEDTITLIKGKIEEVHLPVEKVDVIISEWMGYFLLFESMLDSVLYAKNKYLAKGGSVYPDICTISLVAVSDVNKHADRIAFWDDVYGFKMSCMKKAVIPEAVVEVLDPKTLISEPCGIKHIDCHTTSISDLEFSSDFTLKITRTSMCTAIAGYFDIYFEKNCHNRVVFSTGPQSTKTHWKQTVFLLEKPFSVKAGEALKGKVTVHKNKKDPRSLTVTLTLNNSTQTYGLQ

The test has as its target T1, PRMT3 (Homo sapiens, UniProt O60678).
T1 construct: GST-tagged PRMT3; made in house; host or cells: E. coli BL21(DE3) Gold
Briefly: PRMT3 Biochemical Assay (3H-SAM Flashplate, peptide substrate). Particulars: 30 min preincubation, room temperature. The text has this:
S-adenosylmethionine (SAM), S-adenosylhomocysteine (SAH), bicine, Tween20, dimethylsulfoxide (DMSO), bovine skin gelatin (BSG), isopropyl-β-D-thiogalactopyranoside (IPTG), and Tris(2-carboxyethyl)phosphine hydrochloride solution (TCEP) were purchased from Sigma-Aldrich at the highest level of purity possible. ^3H-SAM was purchase from American Radiolabeled Chemicals with a specific activity of 80 Ci/mmol. 384-well streptavidin Flashplates were purchased from PerkinElmer.
Peptide containing the classic RMT substrate motif was synthesized with an N-terminal linker-affinity tag motif and a C-terminal amide cap by 21st Century Biochemicals. The peptide was purified by high-performance liquid chromatography (HPLC) to greater than 95% purity and confirmed by liquid chromatography mass spectrometry (LC-MS). The sequence was Biot-Ahx-[…]-amide (SEQ ID NO.:11).
Full-length human PRMT3 (NM_005788.3) isoform 1 transcript clone was amplified from an HEK 293 cDNA library and subcloned into pGEX-KG (GE Life Sciences). The resulting construct encodes an N-terminal GST tag and a thrombin cleavage sequence ([…] […] […] […]) (SEQ ID NO.: 12) fused directly to Cys 2 of PRMT3.
E. coli (BL21(DE3) Gold, Stratagene) made competent by the CaCl2 method were transformed with the PRMT3 construct and ampicillin selection. Protein over-expression was accomplished by growing the PRMT3 expressing E. coli clone and inducing expression with 0.3 mM IPTG at 16° C. The culture was grown for 12 hours, harvested by centrifugation, and stored at −80° C. for purification.
GST-tagged PRMT3 eluted with 25-400 mM phosphate in buffer C. Protein was concentrated and buffer was exchanged to 20 mM Tris, 150 mM NaCl, 5% glycerol, 5 mM β-mercaptoethanol, pH7.8 by ultrafiltration. The purity of recovered protein was 70%.
General Procedure for PRMT3 Enzyme Assays on Peptide Substrates.
The assays were all performed in a buffer consisting of 20 mM Bicine (pH=7.6), 1 mM TCEP, 0.005% BSG, and 0.002% Tween 20, prepared on the day of use. Compounds in 100% DMSO (1 ul) were spotted into a polypropylene 384-well V-bottom plates (Greiner) using a Platemate Plus outfitted with a 384-channel head (Thermo Scientific). DMSO (1 ul) was added to Columns 11, 12, 23, 24, rows A-H for the maximum signal control and 1 ul of SAH, a known product and inhibitor of PRMT3, was added to columns 11, 12, 23, 24, rows I-P for the minimum signal control. A cocktail (40 ul) containing the PRMT3 enzyme was added by Multidrop Combi (Thermo-Fisher). The compounds were allowed to incubate with PRMT3 for 30 min at room temperature, then a cocktail (10 ul) containing SAM and peptide was added to initiate the reaction (final volume=51 ul). The final concentrations of the components were as follows: PRMT3 was 0.5 nM, ^3H-SAM was 100 nM, non-radiolabeled SAM was 1.8 uM, peptide was 330 nM, SAH in the minimum signal control wells was 1 mM, and the DMSO concentration was 2%. The assays were stopped by the addition of potassium chloride (10 ul) to a final concentration of 100 mM. 50 ul of the reaction in the 384-well polypropylene plate was then transferred to a 384-well Flashplate and the biotinylated peptides were allowed to bind to the streptavidin surface for at least 1 hour before being washed once with 0.1% Tween20 in a Biotek ELx405 plate washer. The plates were then read in a PerkinElmer TopCount plate reader to measure the quantity of ^3H-labeled peptide bound to the Flashplate surface, measured as disintegrations per minute (dpm) or alternatively, referred to as counts per minute (cpm).
Where dpm=disintegrations per minute, cmpd=signal in assay well, and min and max are the respective minimum and maximum signal controls.
Where top and bottom are the normally allowed to float, but may be fixed at 100 or 0 respectively in a 3-parameter fit. The Hill Coefficient normally allowed to float but may also be fixed at 1 in a 3-parameter fit. […]
`CN(CCN)Cc1c[nH]nc1-c1ccsc1` [Compound 3]: the IC50 lay in the range of 3.01 to 10 µM.
In the case of `CN(CCN)Cc1c[nH]nc1-c1cncnc1` [Compound 4], the IC50 is ≥ 10 µM.
The figure for `CN(CCN)Cc1c[nH]nc1-c1cccs1` [Compound 5] is ≥ 10 µM.
The result for `CN(CCN)Cc1c[nH]nc1-c1ccco1` [Compound 6] reads 3.01 to 10 µM.
The figure for `CN(CCN)Cc1c[nH]nc1-c1ccoc1` [Compound 7] is ≥ 10 µM.
On to `CN(CCN)Cc1c[nH]nc1-c1cnn(C)c1` [Compound 8], for which the IC50 was ≥ 10 µM.
The result for `CN(CCN)Cc1c[nH]nc1-c1ccc2scnc2c1` [Compound 9] reads 3.01 to 10 µM; that for `Cc1noc(C)c1-c1n[nH]cc1CN(C)CCN` [Compound 10], ≥ 10 µM.
The figure for `COc1ncc(-c2n[nH]cc2CN(C)CCN)cn1` [Compound 11] is ≥ 10 µM.
The result for `CN(CCN)Cc1c[nH]nc1-c1cn[nH]c1` [Compound 12] reads ≥ 10 µM; that for `CN(CCN)Cc1c[nH]nc1-c1cnc2[nH]ccc2c1` [Compound 13], 1.01 to 3 µM; that for `CN(CCN)Cc1c[nH]nc1-c1cc[nH]n1` [Compound 14], ≥ 10 µM.
Take `CN(CCN)Cc1c[nH]nc1-c1ccnn1C` [Compound 15]: the IC50 was ≥ 10 µM.
The result for `CCn1cc(-c2n[nH]cc2CN(C)CCN)cn1` [Compound 16] reads 3.01 to 10 µM; that for `CN(CCN)Cc1c[nH]nc1-c1cnn(-c2ccccc2)c1` [Compound 17], 3.01 to 10 µM.
The figure for `CN(CCN)Cc1c[nH]nc1-c1cnn(CCO)c1` [Compound 18] is ≥ 10 µM; for `CN(CCN)Cc1c[nH]nc1-c1ccc2cnn(C)c2c1` [Compound 19, N^1-methyl-N^1-((3-(1-methyl-1H-indazol-6-yl)-1H-pyrazol-4-yl)methyl)ethane-1,2-diamine] it is 3.01 to 10 µM.
The figure for `CN(CCN)Cc1c[nH]nc1-c1ccc2ncnn2c1` [Compound 20] is 3.01 to 10 µM.
In turn, `CN(CCN)Cc1c[nH]nc1-c1ccc2nccn2c1` [Compound 21, N^1-((3-(imidazo[1,2-a]pyridin-6-yl)-1H-pyrazol-4-yl)methyl)-N^1-methylethane-1,2-diamine] yielded an IC50 of 3.01 to 10 µM.
The figure for `CC(C)n1cc(-c2n[nH]cc2CN(C)CCN)cn1` [Compound 22] is 3.01 to 10 µM; for `CC(C)Cn1cc(-c2n[nH]cc2CN(C)CCN)cn1` [Compound 23, N^1-((2′-isobutyl-3,4′-bi(1H-pyrazol)-4-yl)methyl)-N^1-methylethane-1,2-diamine] it is 3.01 to 10 µM.
The figure for `CN(CCN)Cc1c[nH]nc1-c1cnn(Cc2ccccc2)c1` [Compound 24, N^1-((1′-benzyl-3,4′-bi(1H-pyrazol)-4-yl)methyl)-N^1-methylethane-1,2-diamine] is 3.01 to 10 µM.

Source of the values: patent publication US9630961B2, “Arginine methyltransferase inhibitors and uses thereof” (Epizyme, Inc., priority 2013, dated 2017).
